Experimental data from US20180140578A1, “METHODS AND COMPOSITIONS FOR THE DIAGNOSIS AND SELECTIVE TREATMENT OF CANCER” (Board of Regents of the University of Texas System, priority 2016, published 2018).
Read-outs that look alike come from different tables or passages of the source.

How the values were obtained:
Experiment in all cases: IC50 assay, NSCLC cell lines (Cell Titer Glo, total ATP)
Assay type in all cases: cell-based
H2122 = settings: Homo sapiens
Description: (§1) Cells were plated at ˜15% confluence in a media comprising 5% concentration of fetal bovine serum supplemented with RPMI, which included 2 mM L-Glutamine in a 96 well dish. […] Following three days of incubation in a 5% CO2 incubator, the total ATP in each well was quantified using Cell Titer Glo (Promega). […] The solid lines represent the medians.

H1703 = settings: Homo sapiens
Description: as §1

HCC2450 = settings: Homo sapiens
Description: as §1

HOP62 = settings: Homo sapiens
Description: as §1

H1373 = settings: Homo sapiens
Description: as §1

H1755 = settings: Homo sapiens
Description: as §1

A427 = settings: Homo sapiens
Description: as §1

H3122 = settings: Homo sapiens
Description: as §1

H1648 = settings: Homo sapiens
Description: as §1

HCC4006 = settings: Homo sapiens
Description: as §1

H1437 = settings: Homo sapiens
Description: as §1

HCC95 = settings: Homo sapiens
Description: as §1

H292 = settings: Homo sapiens
Description: as §1

H1581 = settings: Homo sapiens
Description: as §1

H920 = settings: Homo sapiens
Description: as §1

Calu-6 = settings: Homo sapiens
Description: as §1

H2887 = settings: Homo sapiens
Description: as §1

H2347 = settings: Homo sapiens
Description: as §1

H820 = settings: Homo sapiens
Description: as §1

H1650 = settings: Homo sapiens
Description: as §1

H1568 = settings: Homo sapiens
Description: as §1

H1155 = settings: Homo sapiens
Description: as §1

H460 = settings: Homo sapiens, NCI-H460, read-out: Indisulam IC50 (log 10) (converted), U2AF1 WT
Description: as §1

H2172 = settings: Homo sapiens
Description: as §1

HCC44 = settings: Homo sapiens
Description: as §1

H125 = settings: Homo sapiens
Description: as §1

H2126 = settings: Homo sapiens
Description: as §1

[1] = read-out: Indisulam IC50 (log 10) (converted), U2AF1 WT
[2] = read-out: Indisulam IC50, U2AF1 WT

SMILES: NS(=O)(=O)c1ccc(S(=O)(=O)Nc2cccc3c(Cl)c[nH]c23)cc1 [Indisulam, indisulam]
- IC50 (H2122; NCI-H2122, read-out: Indisulam IC50 (log 10) (converted), U2AF1 WT): 18.8 µM
- IC50 (H2122; NCI-H2122, read-out: Indisulam IC50, U2AF1 WT): 18.8 µM
- IC50 (H1703; NCI-H1703, read-out: Indisulam IC50 (log 10) (converted), U2AF1 WT): 3.33 µM
- IC50 (H1703; NCI-H1703, read-out: Indisulam IC50, U2AF1 WT): 3.33 µM
- IC50 (HCC2450; [1]): 135 µM
- IC50 (HCC2450; [2]): 135 µM
- IC50 (HOP62; HOP-62, read-out: Indisulam IC50 (log 10) (converted), U2AF1 WT): 6.08 µM
- IC50 (HOP62; HOP-62, read-out: Indisulam IC50, U2AF1 WT): 6.08 µM
- IC50 (H1373; NCI-H1373, read-out: Indisulam IC50 (log 10) (converted), U2AF1 S34F): 0.23 µM
- IC50 (H1373; NCI-H1373, read-out: Indisulam IC50, U2AF1 S34F): 0.23 µM
- IC50 (H1755; NCI-H1755, read-out: Indisulam IC50 (log 10) (converted), U2AF1 WT): 252 µM
- IC50 (H1755; NCI-H1755, read-out: Indisulam IC50, U2AF1 WT): 252 µM
- IC50 (A427; A-427, read-out: Indisulam IC50 (log 10) (converted), U2AF1 WT): 13.9 µM
- IC50 (A427; A-427, read-out: Indisulam IC50, U2AF1 WT): 13.9 µM
- IC50 (H3122; NCI-H3122, read-out: Indisulam IC50 (log 10) (converted), U2AF1 WT): 70.1 µM
- IC50 (H3122; NCI-H3122, read-out: Indisulam IC50, U2AF1 WT): 70.1 µM
- IC50 (H1648; NCI-H1648, read-out: Indisulam IC50 (log 10) (converted), U2AF1 WT): 16.8 µM
- IC50 (H1648; NCI-H1648, read-out: Indisulam IC50, U2AF1 WT): 16.8 µM
- IC50 (HCC4006; [1]): 0.735 µM
- IC50 (HCC4006; [2]): 0.735 µM
- IC50 (H1437; NCI-H1437, read-out: Indisulam IC50 (log 10) (converted), U2AF1 WT): 14 µM
- IC50 (H1437; NCI-H1437, read-out: Indisulam IC50, U2AF1 WT): 14 µM
- IC50 (HCC95; [1]): 9.5 µM
- IC50 (HCC95; [2]): 9.5 µM
- IC50 (H292; NCI-H292, read-out: Indisulam IC50 (log 10) (converted), U2AF1 WT): 1.12 µM
- IC50 (H292; NCI-H292, read-out: Indisulam IC50, U2AF1 WT): 1.12 µM
- IC50 (H1581; NCI-H1581, read-out: Indisulam IC50 (log 10) (converted), U2AF1 WT): 19.2 µM
- IC50 (H1581; NCI-H1581, read-out: Indisulam IC50, U2AF1 WT): 19.2 µM
- IC50 (H920; [1]): 2.17 µM
- IC50 (H920; [2]): 2.17 µM
- IC50 (Calu-6; [1]): 1.51 µM
- IC50 (Calu-6; [2]): 1.51 µM
- IC50 (H2887; NCI-H2887, read-out: Indisulam IC50 (log 10) (converted), U2AF1 WT): 9.63 µM
- IC50 (H2887; NCI-H2887, read-out: Indisulam IC50, U2AF1 WT): 9.63 µM
- IC50 (H2347; NCI-H2347, read-out: Indisulam IC50 (log 10) (converted), U2AF1 WT): 13.5 µM
- IC50 (H2347; NCI-H2347, read-out: Indisulam IC50, U2AF1 WT): 13.5 µM
- IC50 (H820; NCI-H820, read-out: Indisulam IC50 (log 10) (converted), U2AF1 WT): 5.17 µM
- IC50 (H820; NCI-H820, read-out: Indisulam IC50, U2AF1 WT): 5.17 µM
- IC50 (H1650; NCI-H1650, read-out: Indisulam IC50 (log 10) (converted), U2AF1 WT): 31.9 µM
- IC50 (H1650; NCI-H1650, read-out: Indisulam IC50, U2AF1 WT): 31.9 µM
- IC50 (H1568; NCI-H1568, read-out: Indisulam IC50 (log 10) (converted), U2AF1 WT): 265 µM
- IC50 (H1568; NCI-H1568, read-out: Indisulam IC50, U2AF1 WT): 265 µM
- IC50 (H1155; NCI-H1155, read-out: Indisulam IC50 (log 10) (converted), U2AF1 WT): 0.242 µM
- IC50 (H1155; NCI-H1155, read-out: Indisulam IC50, U2AF1 WT): 0.242 µM
- IC50 (H460): ≥ 500 µM
- IC50 (H2172; NCI-H2172, read-out: Indisulam IC50 (log 10) (converted), U2AF1 WT): 20.5 µM
- IC50 (H2172; NCI-H2172, read-out: Indisulam IC50, U2AF1 WT): 20.5 µM
- IC50 (HCC44; [1]): 23 µM
- IC50 (HCC44; [2]): 23 µM
- IC50 (H125; NCI-H125, read-out: Indisulam IC50 (log 10) (converted), U2AF1 WT): 10.8 µM
- IC50 (H125; NCI-H125, read-out: Indisulam IC50, U2AF1 WT): 10.8 µM
- IC50 (H2126; NCI-H2126, read-out: Indisulam IC50 (log 10) (converted), U2AF1 WT): 20.5 µM
- IC50 (H2126; NCI-H2126, read-out: Indisulam IC50, U2AF1 WT): 20.5 µM
